Laboratory results as given in patent US20180161310A1, “COMPOUNDS AND METHODS FOR THE TREATMENT OF NEUROLOGICAL DISORDERS” (Teleos Therapeutics, LLC, priority 2016, published 2018).
Where two headings read alike, the source gives them in different places.

Experiments:
[1] = system: PTZ-induced behavior in zebrafish larvae; experiment: Suppression of PTZ-induced behavior in zebrafish larvae; type: in vivo
Description: Differences between behavioral profiles of larval zebrafish treated with KCC2 inhibitors and larval zebrafish treated with PTZ were investigated by evaluating the ability of traditional anti-seizure drugs to reverse their effects. Five drugs in at least six concentrations (by allocating 12 wells per concentration) were tested. These drugs included a benzodiazepine anxiolytic (diazepam), two AEDs that increase GABA levels in the synapse (tiagabine and valproate), a sodium channel blocker (phenytoin) and a synthetic neurosteroid GABAA positive allosteric modulator (PAM, ganaxolone).

Kv7.2/7.3 (KCNQ2/3) = biological target: T1, Kv7.2/7.3 (KCNQ2/3) (Homo sapiens, UniProt O43525+O43526); experiment: CHO-Kv7.2/7.3 (KCNQ2/3) 86Rb efflux assay; type: cell-based; settings: for Emax: read-out: Max Flux %; for Conc μM @ Max Flux: concentration at which maximal 86Rb flux was seen; for Fitted Max %: fit, maximum activation set at 100% of 70 mM KCl control stimulus
T1 construct: expressed in transfected cells; host or cells: CHO
Description: Compounds were tested at concentrations from 0.001 μM to 30 μM to generate 10-point concentration-response curve (CRC) (n=2). Retigabine and ML213 were included as control activators of Kv7.2/7.3 (KCNQ2/3). Data was normalized to ^86Rb flux elicited by application of extracellular buffer containing 70 mM KCl.
Data were fit with “maximum activation” set at 100% of 70 mM KCl control stimulus.

[2] = system: VU0463271-induced phenotype (KCC2 inhibition) in zebrafish larvae; experiment: animal or person; settings: for EC50: Danio rerio, read-out: in vivo EC50; for peak activity: concentration of peak effect, doses 2.5-320 uM, suppression of KCC2-inhibited phenotype in zebrafish
Description: To quantify the ability of the same drugs to reverse (or “rescue”) the phenotype caused by either 2.5 μM VU0463271 or 5 μM VU0240551, a rescue score between 0 (no rescue) and 1 (maximal theoretical rescue) was calculated (FIG. 2C). A rescue score incorporates and quantifies the degree of phenotypic reversal and the level of sedation in each concentration tested (see Materials and Methods below).
A diverse collection of 37,000 uncharacterized small molecules were used in a suppressor screen against either 2.5 μM VU0463271 (27,000 compounds) or 5 μM VU0240551 (10,000 compounds), along with 3,700 control wells treated with DMSO alone and 3,700 control wells treated with the KCC2 inhibitor. Each well of a 96-well plate containing at least about 8 zebrafish larvae was treated with a library compound or DMSO followed by treatment with the KCC2 inhibitor. Behavioral profiles pre- and post-treatment with the KCC2 inhibitor were evaluated using the behavioral assay battery described herein, and a detailed quantitative readout of about 15,000 time points was generated for each well. These behavioral profiles were used to calculate a screening score for each library compound, which incorporates and quantifies the rescue score and sedation index (see Materials and Methods).
In some cases, small molecules that alter the KCC2 inhibition phenotype may reverse the behavioral phenotype back to the normal, but could also elicit a new undesired phenotype, which is different from a normal behavior. To discriminate between these possibilities, vector algebra was used to compare each behavioral profile to the behavioral profile of DMSO-treated larvae and defined a value for the phenotypic distance from DMSO. The screen score of each compound was then plotted against its averaged phenotypic distance from DMSO (FIG. 3A) and MI (FIG. 3B) to filter out compounds that elicit a profile that is very different from the control one and compounds that reduce overall activity, respectively.
The reproducibility of the effects and the active concentration ranges of the 30 hits selected, as described above, were determined. Their rescue efficacies were retested in at least six concentrations and their rescue scores were also recalculated.
TT0023831 and six analogs were tested at a range of doses from 2.5-320 uM in a behavioral assay designed to assess the ability of compounds to suppress the effects of KCC2 inhibition. The graphs of FIG. 11 indicate the degree of suppression of the KCC2-inhibited phenotype, where a score of 1 represents complete restoration of KCC2-treated zebrafish to normal. […] Table 4 summarizes the estimated EC50 values and peak effect values for each compound.
A large number of fertilized zebrafish eggs (up to 20,000 embryos per day) were collected from group matings of wild type Ekkwill/Singapore zebrafish. Embryos were raised in hatching jars at 28° C. on a 14/10 hour light/dark cycle until 3 days post fertilization (dpf), then transferred to an incubator under the same conditions until 7 dpf. Groups of eight larvae (7 dpf) were distributed into the wells of a clear flat bottom square well 96-well plates filled with E3 medium (300 μl). Larvae were then incubated at 25° C. on the bench top for one-hour chemical treatment and subsequent experiments.
A library containing 37,000 uncharacterized small molecules was purchased from Life Chemicals and dissolved in DMSO at a stock concentration of 10 mM.

[3] = 10-point CRC 0.001-30 μM, n=2, fit with maximum activation set at 100% of 70 mM KCl control, read-out: EC50
[4] = 86Rb flux normalized to 70 mM KCl control
[5] = Table 7, first line of values, read-out: EC50 (μM, raw)
[6] = Table 7, second, unlabelled line of values, read-out: EC50 (μM, raw)

CN1C(=O)CN=C(c2ccccc2)c2cc(Cl)ccc21 [diazepam]
prevention of the formation of the PTZ-induced behavior ([1]; zebrafish, in vivo): almost completely prevented

CCCOc1nn(CCC)cc1C(=O)Nc1ccc(C(F)(F)F)c(C)c1 [TT0000372, N-(3-methyl-4-(trifluoromethyl)phen-yl)-3-propoxy-1-propyl-1H-pyrazole-4-carboxamide]
EC50 (Kv7.2/7.3 (KCNQ2/3); [3]): > 30 µM | Emax (Kv7.2/7.3 (KCNQ2/3); [4]): 31% | EC50 (Kv7.2/7.3 (KCNQ2/3); [5]): 9.5 µM | EC50 (Kv7.2/7.3 (KCNQ2/3); [6]): 1.6 µM | Conc μM @ Max Flux (Kv7.2/7.3 (KCNQ2/3)): 10 µM | Fitted Max % (Kv7.2/7.3 (KCNQ2/3)): 100%

CCCOc1nn(CCC)cc1C(=O)Nc1ccc(F)cc1F [TT0000349, N-(2,4-difluorophenyl)-3-propoxy-1-propyl-1H-pyrazole-4-carboxamide]
EC50 (Kv7.2/7.3 (KCNQ2/3); [3]): > 30 µM | Emax (Kv7.2/7.3 (KCNQ2/3); [4]): 33% | EC50 (Kv7.2/7.3 (KCNQ2/3); [5]): 0.54 µM | EC50 (Kv7.2/7.3 (KCNQ2/3); [6]): > 30 µM | Conc μM @ Max Flux (Kv7.2/7.3 (KCNQ2/3)): 10 µM | Fitted Max % (Kv7.2/7.3 (KCNQ2/3)): 100%

COc1cc(C)c(C)cc1S(=O)(=O)NCCN1CCOCC1 [TT0038280, 2-methoxy-4,5-dimethyl-N-(2-morpholinoethyl)benzene-sulfonamide]
EC50 [2]: 40 µM | peak activity [2]: 80 µM

COc1cc(C)c(Br)cc1S(=O)(=O)NCCN1CCOCC1 [TT0027052, 5-bromo-2-methoxy-4-methyl-N-(2-morpholinoethyl)benzene-sulfonamide]
EC50 [2]: 5 µM | peak activity [2]: 20 µM

CCOc1ccc(Br)cc1S(=O)(=O)NCCN1CCOCC1 [TT0048134, 5-bromo-2-ethoxy-N-(2-morpholinoethyl)benzene-sulfonamide]
EC50 [2]: 15 µM | peak activity [2]: 20 µM

Cc1cc(C)c(NC(=O)C2CC3CCC2C3)c(C)c1 (stereo not shown) [ML213, reference compound]
EC50 (Kv7.2/7.3 (KCNQ2/3); [3]): 0.02 µM | Max Flux % (Kv7.2/7.3 (KCNQ2/3); [4]): 109% | 86Rb flux elicited by reference activators (Kv7.2/7.3 (KCNQ2/3); EC50 values comparable to literature values): robust concentration-dependent | Conc μM @ Max Flux (Kv7.2/7.3 (KCNQ2/3)): 0.3 µM | Fitted Max % (Kv7.2/7.3 (KCNQ2/3)): 98%

COc1cc(S(=O)(=O)NCCN2CCOCC2)c(OC)cc1C [TT0048874, 2,5-dimethoxy-4-methyl-N-(2-morpholinoethyl)benzene-sulfonamide]
EC50 [2]: 40 µM | peak activity [2]: 160 µM

CCCOc1nn(CCC)cc1C(=O)Nc1ccc(C#N)cc1 [TT0000366, N-(4-cyanophenyl)-3-propoxy-1-propyl-1H-pyrazole-4-carboxamide]
EC50 (Kv7.2/7.3 (KCNQ2/3); [3]): > 30 µM | Emax (Kv7.2/7.3 (KCNQ2/3); [4]): 28% | EC50 (Kv7.2/7.3 (KCNQ2/3); [5]): 0.0054 µM | EC50 (Kv7.2/7.3 (KCNQ2/3); [6]): > 30 µM | Conc μM @ Max Flux (Kv7.2/7.3 (KCNQ2/3)): 3 µM | Fitted Max % (Kv7.2/7.3 (KCNQ2/3)): 100%

CCCOc1nn(CCC)cc1C(=O)Nc1ccccc1 [TT0000363, N-phenyl-3-propoxy-1-propyl-1H-pyrazole-4-carboxamide]
EC50 (Kv7.2/7.3 (KCNQ2/3); [3]): > 30 µM | Emax (Kv7.2/7.3 (KCNQ2/3); [4]): 15% | EC50 (Kv7.2/7.3 (KCNQ2/3); [5]): > 30 µM | EC50 (Kv7.2/7.3 (KCNQ2/3); [6]): > 30 µM | Conc μM @ Max Flux (Kv7.2/7.3 (KCNQ2/3)): 0.001 µM | Fitted Max % (Kv7.2/7.3 (KCNQ2/3)): 100%

CCCOc1nn(CCC)cc1C(=O)Nc1cc(F)ccc1F [TT0000351, N-(2,5-difluorophenyl)-3-propoxy-1-propyl-1H-pyrazole-4-carboxamide]
EC50 (Kv7.2/7.3 (KCNQ2/3); [3]): > 30 µM | Emax (Kv7.2/7.3 (KCNQ2/3); [4]): 33% | EC50 (Kv7.2/7.3 (KCNQ2/3); [5]): > 30 µM | EC50 (Kv7.2/7.3 (KCNQ2/3); [6]): > 10 µM | Conc μM @ Max Flux (Kv7.2/7.3 (KCNQ2/3)): 10 µM | Fitted Max % (Kv7.2/7.3 (KCNQ2/3)): 100%

CCCOc1nn(CCC)cc1C(=O)Nc1ccc(F)c(Cl)c1 [TT0000352, N-(3-chloro-4-fluorophenyl)-3-propoxy-1-propyl-1H-pyrazole-4-carboxamide]
EC50 (Kv7.2/7.3 (KCNQ2/3); [3]): > 30 µM | Emax (Kv7.2/7.3 (KCNQ2/3); [4]): 33% | EC50 (Kv7.2/7.3 (KCNQ2/3); [5]): 0.48 µM | EC50 (Kv7.2/7.3 (KCNQ2/3); [6]): 0.14 µM | Conc μM @ Max Flux (Kv7.2/7.3 (KCNQ2/3)): 3 µM | Fitted Max % (Kv7.2/7.3 (KCNQ2/3)): 100%

Cc1ccsc1C(=CCCN1CCC[C@@H](C(=O)O)C1)c1sccc1C [tiagabine, reference compound]
rescue of the behavioral profile induced by KCC2 inhibition (rescue score 0-1) ([2]; phenotype caused by 2.5 μM VU0463271 or 5 μM VU0240551, at least six concentrations): most effective | prevention of the formation of the PTZ-induced behavior ([1]; pre-treatment, non-sedative concentration 40 μM, data not shown): almost completely prevented

CCCOc1nn(CCC)cc1C(=O)Nc1ccc(C(F)(F)F)c(F)c1 [TT0000367, N-(3-fluoro-4-(trifluoromethyl)phen-yl)-3-propoxy-1-propyl-1H-pyrazole-4-carboxamide]
suppression score dose response compared with other compounds as suppressor of the hyperexcitability phenotype ([2]; zebrafish, FIG. 8 / FIG. 10): outperform the other compounds tested | EC50 (Kv7.2/7.3 (KCNQ2/3); [3]): > 30 µM | Emax (Kv7.2/7.3 (KCNQ2/3); [4]): 21% | EC50 (Kv7.2/7.3 (KCNQ2/3); [5]): > 30 µM | EC50 (Kv7.2/7.3 (KCNQ2/3); [6]): > 30 µM | Conc μM @ Max Flux (Kv7.2/7.3 (KCNQ2/3)): 0.01 µM | Fitted Max % (Kv7.2/7.3 (KCNQ2/3)): 100%

COc1cc(C)c(C(C)C)cc1S(=O)(=O)NCC1CCCO1 (stereo not shown) [TT0048274, 5-isopropyl-2-methoxy-4-methyl-N-((tetrahydrofuran-2-yl)methyl)benzenesulfonamide]
EC50 [2]: > 160 µM | peak activity [2]: >160 µM

CC(=O)[C@H]1CC[C@H]2[C@@H]3CC[C@H]4C[C@](C)(O)CC[C@]4(C)[C@H]3CC[C@]12C [ganaxolone]
prevention of the formation of the PTZ-induced behavior ([1]; pre-treatment, non-sedative concentration 0.31 μM, data not shown): almost completely prevented

O=C1NC(=O)C(c2ccccc2)(c2ccccc2)N1 [phenytoin]
prevention of the formation of the PTZ-induced behavior ([1]; pre-treatment, 160 μM, data not shown): almost no effect

CCCOc1nn(CCC)cc1C(=O)Nc1ccc(C(F)(F)F)c(Cl)c1 [TT0000369, N-(3-chloro-4-(trifluoromethyl)phen-yl)-3-propoxy-1-propyl-1H-pyrazole-4-carboxamide]
EC50 (Kv7.2/7.3 (KCNQ2/3); [3]): > 30 µM | Emax (Kv7.2/7.3 (KCNQ2/3); [4]): 35% | EC50 (Kv7.2/7.3 (KCNQ2/3); [5]): 1.54 µM | EC50 (Kv7.2/7.3 (KCNQ2/3); [6]): 2.63 µM | Conc μM @ Max Flux (Kv7.2/7.3 (KCNQ2/3)): 3 µM | Fitted Max % (Kv7.2/7.3 (KCNQ2/3)): 100%

CCOC(=O)Nc1ccc(NCc2ccc(F)cc2)cc1N [Retigabine, reference compound]
EC50 (Kv7.2/7.3 (KCNQ2/3); [3]): 0.1 µM | Emax (Kv7.2/7.3 (KCNQ2/3); [4]): 89%

COc1ccc(C(C)C)cc1S(=O)(=O)NCCN1CCOCC1 [TT0048803, 5-isopropyl-2-methoxy-N-(2-morpholinoethyl)benzene-sulfonamide]
EC50 [2]: < 5 µM | peak activity [2]: 20 µM
